Assay results published in ChEMBL document CHEMBL1133015 (J Med Chem, 2000).

Tests used:
Substance-P receptor [1] = target: T1, Substance-P receptor (Homo sapiens, UniProt P25103); experiment: Tested for binding affinity against Tachykinin receptor 1
Substance-P receptor [2] = target: T1, Substance-P receptor; experiment: Tested for binding affinity against Tachykinin receptor 1 expressed in CHO cells, using [125]SP as radioligand at 1 uM; assay type: cell-based
[3] = system: Substance-P receptor (Homo sapiens), P25103 [Q165A]; experiment: Inhibition against Q165A mutant NK1 receptor expressed in CHO cells, using [125]SP as radioligand at 1 uM; assay type: cell-based
Substance-K receptor [4] = target: T2, Substance-K receptor (Homo sapiens, UniProt P21452); experiment: Tested for binding affinity against Tachykinin receptor 2 expressed in CHO cells, using [125]SP as radioligand.; assay type: cell-based
T2 sequence (P21452 whole entry): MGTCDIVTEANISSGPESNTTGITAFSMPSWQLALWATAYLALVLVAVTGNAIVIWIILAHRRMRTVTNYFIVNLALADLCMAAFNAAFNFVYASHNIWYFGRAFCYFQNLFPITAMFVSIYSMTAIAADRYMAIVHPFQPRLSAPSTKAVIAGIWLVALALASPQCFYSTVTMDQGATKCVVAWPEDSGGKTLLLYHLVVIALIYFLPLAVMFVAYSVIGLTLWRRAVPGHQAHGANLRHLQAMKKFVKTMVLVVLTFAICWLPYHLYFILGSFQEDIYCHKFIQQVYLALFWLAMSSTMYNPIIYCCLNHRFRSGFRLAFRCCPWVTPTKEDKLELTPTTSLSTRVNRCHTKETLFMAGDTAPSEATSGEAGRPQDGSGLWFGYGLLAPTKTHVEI

Substance-P receptor [5] = target: T1, Substance-P receptor; experiment: Tested for binding affinity against human wild type NK1 receptor expressed in CHO cells, using [125]SP as radioligand.; assay type: cell-based
Substance-P receptor [6] = target: Substance-P receptor (Homo sapiens, UniProt P25103, H197A); experiment: Tested for binding affinity against H197A mutant NK1 receptor using [125]SP radioligand in COS cells.; assay type: cell-based
Substance-P receptor [7] = target: Substance-P receptor (Homo sapiens, UniProt P25103, H265A); experiment: Tested for binding affinity against H265A mutant NK1 receptor using [125]SP radioligand in COS cells.; assay type: cell-based
Substance-P receptor [8] = target: Substance-P receptor (Homo sapiens, UniProt P25103, Q165A); experiment: Tested for binding affinity against Q165A mutant NK1 receptor expressed in CHO cells, using [125]SP as radioligand; assay type: cell-based
Somatostatin receptor = experiment: Tested for binding affinity against somatostatin receptor on AtT-20 cells; assay type: cell-based; conditions: att20
[9] = target: Somatostatin receptor type 4 (Homo sapiens, UniProt P31391); experiment: Tested for binding affinity against human somatostatin receptor subtype 4 (hSSTR4)
Substance-P receptor [10] = target: T1, Substance-P receptor; experiment: Tested for binding affinity against Tachykinin receptor 1 expressed in CHO cells, using [125]SP as radioligand.; assay type: cell-based
Substance-P receptor [11] = target: T1, Substance-P receptor; experiment: Tested for binding affinity against Tachykinin receptor 1 expressed in CHO cells, using [125]SP as radioligand; NA - did not bind; assay type: cell-based
Substance-K receptor [12] = target: T2, Substance-K receptor; experiment: Tested for binding affinity against Tachykinin receptor 2 expressed in CHO cells, using [125]SP as radioligand; NA - did not bind; assay type: cell-based

Substance-P receptor (Homo sapiens, UniProt P25103, H265A), sequence (P25103 whole entry H265A): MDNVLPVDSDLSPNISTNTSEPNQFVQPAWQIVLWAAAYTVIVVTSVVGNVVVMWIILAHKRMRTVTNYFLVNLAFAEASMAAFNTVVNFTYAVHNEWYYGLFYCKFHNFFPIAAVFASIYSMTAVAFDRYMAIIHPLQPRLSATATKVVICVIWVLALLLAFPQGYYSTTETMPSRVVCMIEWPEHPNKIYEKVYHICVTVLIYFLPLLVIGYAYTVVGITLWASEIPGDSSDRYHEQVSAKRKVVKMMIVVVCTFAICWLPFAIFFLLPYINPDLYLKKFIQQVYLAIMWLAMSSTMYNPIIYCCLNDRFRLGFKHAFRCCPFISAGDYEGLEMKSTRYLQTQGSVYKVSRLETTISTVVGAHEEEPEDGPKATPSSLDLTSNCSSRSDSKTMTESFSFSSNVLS
Substance-P receptor (Homo sapiens, UniProt P25103, H197A), sequence (P25103 whole entry H197A): as the sequence (P25103 whole entry H265A) above, with H197A, A265H counted along it
T1 sequence (P25103 whole entry): as the sequence (P25103 whole entry H265A) above, with A265H counted along it
Substance-P receptor (Homo sapiens), P25103 [Q165A], sequence (P25103 whole entry Q165A): as the sequence (P25103 whole entry H265A) above, with Q165A, A265H counted along it
Somatostatin receptor type 4, sequence (P31391 whole entry): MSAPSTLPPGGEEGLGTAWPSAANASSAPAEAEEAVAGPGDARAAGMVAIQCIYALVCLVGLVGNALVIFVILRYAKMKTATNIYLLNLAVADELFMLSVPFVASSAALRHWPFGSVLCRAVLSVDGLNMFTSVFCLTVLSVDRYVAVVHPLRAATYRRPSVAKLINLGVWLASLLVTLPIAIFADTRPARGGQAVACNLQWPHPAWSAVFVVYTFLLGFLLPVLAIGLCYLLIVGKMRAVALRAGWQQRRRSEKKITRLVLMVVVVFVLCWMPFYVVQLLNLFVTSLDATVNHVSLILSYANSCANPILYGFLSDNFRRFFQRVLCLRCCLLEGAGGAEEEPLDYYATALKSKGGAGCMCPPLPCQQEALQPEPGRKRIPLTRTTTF
Substance-P receptor (Homo sapiens, UniProt P25103, Q165A), sequence (P25103 whole entry Q165A): as the sequence (P25103 whole entry H265A) above, with Q165A, A265H counted along it

NCCCCCOC[C@H]1O[C@@H](OCCc2c[nH]c3ccccc23)[C@H](OCc2ccccc2)[C@@H](OCc2ccccc2)[C@@H]1OCc1ccccc1
IC50 (Substance-P receptor [1]): 120 nM

C[C@H](NC(=O)CN)C(=O)N[C@H]1CSSC[C@H](C(=O)O)NC(=O)[C@H](CO)NC(=O)[C@H]([C@@H](C)O)NC(=O)[C@H](Cc2ccccc2)NC(=O)[C@H]([C@@H](C)O)NC(=O)[C@H](CCCCN)NC(=O)[C@H](Cc2c[nH]c3ccccc23)NC(=O)[C@H](Cc2ccccc2)NC(=O)[C@H](Cc2ccccc2)NC(=O)[C@H](CC(N)=O)NC(=O)[C@H](CCCCN)NC1=O
inhibition (Substance-P receptor [2]): 7%

C[C@@H](O)[C@@H]1NC(=O)[C@H](Cc2ccc(F)cc2)NC(=O)[C@@H](Cc2c[nH]c3ccccc23)NC(=O)[C@H](Cc2ccccc2)NC(=O)[C@H](Cc2ccccc2)NC(=O)[C@H](CC(N)=O)NC(=O)[C@H](CCCCN)NC(=O)[C@@H](N)CSSC[C@H](C(=O)O)NC(=O)[C@H](CO)NC(=O)[C@H]([C@@H](C)O)NC(=O)[C@H](Cc2ccccc2)NC1=O
inhibition [3]: 37%

C[C@H](NC(=O)CN)C(=O)N[C@H]1CSSC[C@@H](C(=O)O)NC(=O)[C@H](CO)NC(=O)[C@H]([C@@H](C)O)NC(=O)[C@H](Cc2ccccc2)NC(=O)[C@H]([C@@H](C)O)NC(=O)[C@H](Cc2ccc(F)cc2)NC(=O)[C@H](Cc2c[nH]c3ccccc23)NC(=O)[C@H](Cc2ccccc2)NC(=O)[C@H](Cc2ccccc2)NC(=O)[C@H](CC(N)=O)NC(=O)[C@H](CCCCN)NC1=O
IC50 (Substance-K receptor [4]): 730 nM
IC50 (Substance-P receptor [5]): 1400 nM
IC50 (Substance-P receptor [6]): 2700 nM
IC50 (Substance-P receptor [7]): 8200 nM
IC50 (Substance-P receptor [8]): 3600 nM

C[C@@H](O)[C@@H]1NC(=O)[C@H](CCCCN)C2C(=O)[C@@H](Cc3c2[nH]c2ccccc32)NC(=O)[C@H](Cc2ccccc2)NC(=O)[C@@H]2CCCC2C(=O)[C@H](Cc2ccccc2)NC1=O (stereo not given in full)
IC50 (Somatostatin receptor): 15000 nM
IC50 [9]: 100 nM

C[C@H](NC(=O)CN)C(=O)N[C@H]1CSSC[C@H](C(=O)O)NC(=O)[C@H](CO)NC(=O)[C@H]([C@@H](C)O)NC(=O)[C@H](Cc2ccccc2)NC(=O)[C@H]([C@@H](C)O)NC(=O)[C@H](Cc2ccc(F)cc2)NC(=O)[C@@H](Cc2c[nH]c3ccccc23)NC(=O)[C@H](Cc2ccccc2)NC(=O)[C@H](Cc2ccccc2)NC(=O)[C@H](CC(N)=O)NC(=O)[C@H](CCCCN)NC1=O
inhibition [3]: 30%

C[C@@H](O)[C@@H]1NC(=O)[C@H](Cc2ccccc2)NC(=O)[C@H]([C@@H](C)O)NC(=O)[C@H](Cc2ccc(F)cc2)NC(=O)[C@@H](Cc2c[nH]c3ccccc23)NC(=O)[C@H](Cc2ccccc2)NC(=O)[C@H](Cc2ccccc2)NC(=O)[C@H](CC(N)=O)NC(=O)[C@H](CCCCN)NC(=O)[C@@H](N)CSSC[C@@H](C(=O)O)NC(=O)[C@H](CO)NC1=O
IC50 (Substance-P receptor [10]): 250 nM
IC50 (Substance-K receptor [4]): 46 nM
IC50 (Substance-P receptor [5]): 260 nM
IC50 (Substance-P receptor [6]): 900 nM
IC50 (Substance-P receptor [7]): 9600 nM

C[C@H](NC(=O)CN)C(=O)N[C@H]1CSSC[C@H](C(=O)O)NC(=O)[C@H](CO)NC(=O)[C@H]([C@@H](C)O)NC(=O)[C@H](Cc2ccccc2)NC(=O)[C@H]([C@@H](C)O)NC(=O)[C@H](CCCCN)NC(=O)[C@@H](Cc2c[nH]c3ccccc23)NC(=O)[C@H](Cc2ccccc2)NC(=O)[C@H](Cc2ccccc2)NC(=O)[C@H](CC(N)=O)NC(=O)[C@H](CCCCN)NC1=O
IC50 (Substance-P receptor [11]): Not Active
IC50 (Substance-K receptor [12]): Not Active

C[C@@H](O)[C@@H]1NC(=O)[C@H](Cc2ccc(F)cc2)C2C(=O)[C@@H](Cc3c2[nH]c2ccccc32)NC(=O)[C@H](Cc2ccccc2)NC(=O)[C@@H]2CCCC2C(=O)[C@H](Cc2ccccc2)NC1=O (stereo not given in full)
IC50 (Substance-P receptor [1]): 28 nM

C[C@H](NC(=O)CN)C(=O)N[C@H]1CSSC[C@@H](C(=O)O)NC(=O)[C@H](CO)NC(=O)[C@H]([C@@H](C)O)NC(=O)[C@H](Cc2ccccc2)NC(=O)[C@H]([C@@H](C)O)NC(=O)[C@H](CCCCN)NC(=O)[C@H](Cc2c[nH]c3ccccc23)NC(=O)[C@H](Cc2ccccc2)NC(=O)[C@H](Cc2ccccc2)NC(=O)[C@H](CC(N)=O)NC(=O)[C@H](CCCCN)NC1=O
IC50 (Substance-K receptor [4]): 850 nM

C[C@H](NC(=O)CN)C(=O)N[C@H]1CSSC[C@@H](C(=O)O)NC(=O)[C@H](CO)NC(=O)[C@H]([C@@H](C)O)NC(=O)[C@H](Cc2ccccc2)NC(=O)[C@H]([C@@H](C)O)NC(=O)[C@H](Cc2ccc(F)cc2)NC(=O)[C@@H](Cc2c[nH]c3ccccc23)NC(=O)[C@H](Cc2ccccc2)NC(=O)[C@H](Cc2ccccc2)NC(=O)[C@H](CC(N)=O)NC(=O)[C@H](CCCCN)NC1=O
IC50 (Substance-P receptor [10]): 220 nM
IC50 (Substance-K receptor [4]): 27 nM
IC50 (Substance-P receptor [5]): 240 nM
IC50 (Substance-P receptor [6]): 950 nM
IC50 (Substance-P receptor [7]): 6100 nM
